Laboratory results as given in ChEMBL document CHEMBL3885861, “Open TG-GATES”.

Organism: Rattus norvegicus
Experiment: Open TG-GATES - Regimen: Single
Format: toxicity, organism-based, Sprague-Dawley
Set-up: regimen Single, gender Male, age 6 weeks
Details: in vivo, po, route gavage; for APTT / Bas / Eos / Fbg / Hb / Ht / Lym / MCH / MCHC / MCV / Mono / Neu / PT / Plat / RBC / Ret / WBC: tissue Blood; for KIDNEY_L / KIDNEY_R / KIDNEY_TOTAL: tissue Kidney; for LIVER: tissue Liver; for A/G / ALP / ALT / AST / BUN / CRE / Ca / Cl / DBIL / GLC / IP / K / LDH / Na / PL / RALB / TBIL / TC / TG / TP / gamma-GTP: tissue Plasma
[1] = 0 mg/kg, 3 h, dose level Control
[2] = 0 mg/kg, 6 h, dose level Control
[3] = 0 mg/kg, 9 h, dose level Control
[4] = 0 mg/kg, 24 h, dose level Control

## CCSCC[C@H](N)C(=O)O [ETHIONINE]
[1]
  TERMINAL_BW: 218.5 g
  APTT: 19 s
  Bas: 0%
  Eos: 1%
  Fbg: 216.6 mg/dL
  Hb: 13.4 g/dL
  Ht: 39.8%
  Lym: 79.6%
  MCH: 21.1 pg
  MCHC: 33.5%
  MCV: 62.9 fL
  Mono: 3%
  Neu: 16.4%
  PT: 12.5 s
  Plat: 122 x10_4/uL
  RBC: 632.8 x10_4/ul
  Ret: 7.4%
  WBC: 83.3 x10_2/uL
  KIDNEY_L: 1 g
  KIDNEY_R: 1 g
  KIDNEY_TOTAL: 1.9 g
  LIVER: 10.3 g
  A/G: 1.6
  ALP: 974.2 IU/L
  ALT: 35.6 IU/L
  AST: 64.4 IU/L
  BUN: 11.6 mg/dL
  CRE: 0.4 mg/dL
  Ca: 10.6 mg/dL
  Cl: 100.6 meq/L
  DBIL: 0.066 mg/dL
  GLC: 196.6 mg/dL
  IP: 9.3 mg/dL
  K: 3.9 meq/L
  LDH: 172.8 IU/L
  Na: 140.2 meq/L
  PL: 136.8 mg/dL
  RALB: 3.3 g/dL
  TBIL: 0.1 mg/dL
  TC: 70.6 mg/dL
  TG: 80.8 mg/dL
  TP: 5.4 g/dL
  gamma-GTP: 1 IU/L
[2]
  TERMINAL_BW: 211.6 g
  APTT: 18.9 s
  Bas: 0%
  Eos: 1%
  Fbg: 229 mg/dL
  Hb: 13.6 g/dL
  Ht: 40%
  Lym: 81.8%
  MCH: 21.3 pg
  MCHC: 34.1%
  MCV: 62.5 fL
  Mono: 2.8%
  Neu: 13.2%
  PT: 12.8 s
  Plat: 111.7 x10_4/uL
  RBC: 640.6 x10_4/ul
  Ret: 6.9%
  WBC: 79.1 x10_2/uL
  KIDNEY_L: 1 g
  KIDNEY_R: 0.9 g
  KIDNEY_TOTAL: 1.9 g
  LIVER: 9 g
  A/G: 1.5
  ALP: 1036.8 IU/L
  ALT: 38.6 IU/L
  AST: 70.6 IU/L
  BUN: 10.6 mg/dL
  CRE: 0.4 mg/dL
  Ca: 10.4 mg/dL
  Cl: 102.4 meq/L
  DBIL: 0.076 mg/dL
  GLC: 196 mg/dL
  IP: 9.5 mg/dL
  K: 3.7 meq/L
  LDH: 189 IU/L
  Na: 140.6 meq/L
  PL: 145 mg/dL
  RALB: 3.3 g/dL
  TBIL: 0.1 mg/dL
  TC: 78 mg/dL
  TG: 88.6 mg/dL
  TP: 5.5 g/dL
  gamma-GTP: 1 IU/L
[3]
  TERMINAL_BW: 213.3 g
  APTT: 19 s
  Bas: 0%
  Eos: 1%
  Fbg: 224.8 mg/dL
  Hb: 13 g/dL
  Ht: 38.3%
  Lym: 76.8%
  MCH: 21.2 pg
  MCHC: 34%
  MCV: 62.4 fL
  Mono: 2.4%
  Neu: 19.2%
  PT: 13 s
  Plat: 123.8 x10_4/uL
  RBC: 615 x10_4/ul
  Ret: 6.9%
  WBC: 90.6 x10_2/uL
  KIDNEY_L: 1 g
  KIDNEY_R: 1 g
  KIDNEY_TOTAL: 1.9 g
  LIVER: 9.1 g
  A/G: 1.5
  ALP: 936 IU/L
  ALT: 31.2 IU/L
  AST: 63 IU/L
  BUN: 10 mg/dL
  CRE: 0.4 mg/dL
  Ca: 10.4 mg/dL
  Cl: 102.6 meq/L
  DBIL: 0.062 mg/dL
  GLC: 203.4 mg/dL
  IP: 9.4 mg/dL
  K: 3.6 meq/L
  LDH: 187.2 IU/L
  Na: 141.2 meq/L
  PL: 140 mg/dL
  RALB: 3.3 g/dL
  TBIL: 0.1 mg/dL
  TC: 79.6 mg/dL
  TG: 53.6 mg/dL
  TP: 5.5 g/dL
  gamma-GTP: 1 IU/L
[4]
  TERMINAL_BW: 228.7 g
  APTT: 20.7 s
  Bas: 0%
  Eos: 1%
  Fbg: 226 mg/dL
  Hb: 14 g/dL
  Ht: 41.5%
  Lym: 80.6%
  MCH: 21.8 pg
  MCHC: 33.8%
  MCV: 64.4 fL
  Mono: 2.6%
  Neu: 14.8%
  PT: 12.1 s
  Plat: 126 x10_4/uL
  RBC: 644.2 x10_4/ul
  Ret: 6.6%
  WBC: 105.3 x10_2/uL
  KIDNEY_L: 1 g
  KIDNEY_R: 1 g
  KIDNEY_TOTAL: 2 g
  LIVER: 11.1 g
  A/G: 1.5
  ALP: 936 IU/L
  ALT: 41 IU/L
  AST: 66.8 IU/L
  BUN: 14.4 mg/dL
  CRE: 0.4 mg/dL
  Ca: 10.7 mg/dL
  Cl: 102 meq/L
  DBIL: 0.096 mg/dL
  GLC: 211.6 mg/dL
  IP: 8.1 mg/dL
  K: 3.8 meq/L
  LDH: 183.8 IU/L
  Na: 140.2 meq/L
  PL: 156.6 mg/dL
  RALB: 3.4 g/dL
  TBIL: 0.1 mg/dL
  TC: 81 mg/dL
  TG: 99.2 mg/dL
  TP: 5.7 g/dL
  gamma-GTP: 1.2 IU/L
25 mg/kg, 3 h, dose level Low
  TERMINAL_BW: 217.8 g
  APTT: 19.1 s
  Bas: 0%
  Eos: 1.2%
  Fbg: 211.4 mg/dL
  Hb: 13.1 g/dL
  Ht: 38.9%
  Lym: 83.4%
  MCH: 21.1 pg
  MCHC: 33.5%
  MCV: 62.9 fL
  Mono: 2.4%
  Neu: 12.2%
  PT: 12.4 s
  Plat: 120.2 x10_4/uL
  RBC: 619.2 x10_4/ul
  Ret: 6.9%
  WBC: 89.8 x10_2/uL
  KIDNEY_L: 0.9 g
  KIDNEY_R: 0.9 g
  KIDNEY_TOTAL: 1.9 g
  LIVER: 10.1 g
  A/G: 1.6
  ALP: 855.8 IU/L
  ALT: 33 IU/L
  AST: 66 IU/L
  BUN: 11.2 mg/dL
  CRE: 0.4 mg/dL
  Ca: 10.5 mg/dL
  Cl: 101.8 meq/L
  DBIL: 0.056 mg/dL
  GLC: 202.4 mg/dL
  IP: 9.7 mg/dL
  K: 4 meq/L
  LDH: 212.6 IU/L
  Na: 140.4 meq/L
  PL: 138.4 mg/dL
  RALB: 3.2 g/dL
  TBIL: 0.1 mg/dL
  TC: 77.8 mg/dL
  TG: 61.2 mg/dL
  TP: 5.2 g/dL
  gamma-GTP: 1 IU/L
25 mg/kg, 6 h, dose level Low
  TERMINAL_BW: 214.9 g
  APTT: 19.4 s
  Bas: 0%
  Eos: 1%
  Fbg: 210.6 mg/dL
  Hb: 13.3 g/dL
  Ht: 39.1%
  Lym: 82%
  MCH: 21.4 pg
  MCHC: 33.9%
  MCV: 62.9 fL
  Mono: 2.4%
  Neu: 14%
  PT: 12.7 s
  Plat: 118.7 x10_4/uL
  RBC: 620.4 x10_4/ul
  Ret: 6.7%
  WBC: 82.3 x10_2/uL
  KIDNEY_L: 1 g
  KIDNEY_R: 1 g
  KIDNEY_TOTAL: 2 g
  LIVER: 9.3 g
  A/G: 1.6
  ALP: 885.2 IU/L
  ALT: 31.4 IU/L
  AST: 63.8 IU/L
  BUN: 9.4 mg/dL
  CRE: 0.4 mg/dL
  Ca: 10.2 mg/dL
  Cl: 102.8 meq/L
  DBIL: 0.058 mg/dL
  GLC: 191.2 mg/dL
  IP: 9.5 mg/dL
  K: 3.8 meq/L
  LDH: 224.2 IU/L
  Na: 139.6 meq/L
  PL: 126.8 mg/dL
  RALB: 3.2 g/dL
  TBIL: 0.1 mg/dL
  TC: 66.4 mg/dL
  TG: 52.6 mg/dL
  TP: 5.2 g/dL
  gamma-GTP: 1.6 IU/L
25 mg/kg, 9 h, dose level Low
  TERMINAL_BW: 212.9 g
  APTT: 18.9 s
  Bas: 0%
  Eos: 1%
  Fbg: 228.2 mg/dL
  Hb: 13.4 g/dL
  Ht: 39.3%
  Lym: 71%
  MCH: 21.3 pg
  MCHC: 34%
  MCV: 62.6 fL
  Mono: 2.2%
  Neu: 25.4%
  PT: 12.6 s
  Plat: 125.9 x10_4/uL
  RBC: 629.2 x10_4/ul
  Ret: 6.8%
  WBC: 95.5 x10_2/uL
  KIDNEY_L: 0.9 g
  KIDNEY_R: 0.9 g
  KIDNEY_TOTAL: 1.8 g
  LIVER: 9 g
  A/G: 1.6
  ALP: 842.8 IU/L
  ALT: 33.2 IU/L
  AST: 69.6 IU/L
  BUN: 11.2 mg/dL
  CRE: 0.3 mg/dL
  Ca: 10.5 mg/dL
  Cl: 101.8 meq/L
  DBIL: 0.074 mg/dL
  GLC: 197 mg/dL
  IP: 9.6 mg/dL
  K: 3.7 meq/L
  LDH: 200.6 IU/L
  Na: 141 meq/L
  PL: 123.4 mg/dL
  RALB: 3.4 g/dL
  TBIL: 0.1 mg/dL
  TC: 63.6 mg/dL
  TG: 75.8 mg/dL
  TP: 5.6 g/dL
  gamma-GTP: 0.8 IU/L
25 mg/kg, 24 h, dose level Low
  TERMINAL_BW: 231.8 g
  APTT: 20 s
  Bas: 0%
  Eos: 1%
  Fbg: 234 mg/dL
  Hb: 13.3 g/dL
  Ht: 38.9%
  Lym: 80%
  MCH: 21.7 pg
  MCHC: 34.2%
  MCV: 63.6 fL
  Mono: 3%
  Neu: 15.4%
  PT: 12.7 s
  Plat: 126.9 x10_4/uL
  RBC: 612 x10_4/ul
  Ret: 6.8%
  WBC: 103.2 x10_2/uL
  KIDNEY_L: 1 g
  KIDNEY_R: 1 g
  KIDNEY_TOTAL: 2 g
  LIVER: 11.1 g
  A/G: 1.6
  ALP: 978 IU/L
  ALT: 34.2 IU/L
  AST: 68 IU/L
  BUN: 14.6 mg/dL
  CRE: 0.4 mg/dL
  Ca: 10.6 mg/dL
  Cl: 102.4 meq/L
  DBIL: 0.098 mg/dL
  GLC: 209 mg/dL
  IP: 8.3 mg/dL
  K: 4 meq/L
  LDH: 230.4 IU/L
  Na: 140 meq/L
  PL: 142.8 mg/dL
  RALB: 3.5 g/dL
  TBIL: 0.1 mg/dL
  TC: 67.8 mg/dL
  TG: 122.6 mg/dL
  TP: 5.6 g/dL
  gamma-GTP: 1.4 IU/L
